Our source for the EC50 values is patent US8883789B2, “Piperazine derivatives and their use as positive allosteric modulators of mGluR5 receptors” (Boehringer Ingelheim International GmbH, priority 2011, dated 2014).

For the test, the target named is T1, human recombinant mGluR5 (Homo sapiens, UniProt P41594).
T1 construct: expressed in transfected cells; hygromycin and geneticin selection
T1 sequence (P41594 21-1212): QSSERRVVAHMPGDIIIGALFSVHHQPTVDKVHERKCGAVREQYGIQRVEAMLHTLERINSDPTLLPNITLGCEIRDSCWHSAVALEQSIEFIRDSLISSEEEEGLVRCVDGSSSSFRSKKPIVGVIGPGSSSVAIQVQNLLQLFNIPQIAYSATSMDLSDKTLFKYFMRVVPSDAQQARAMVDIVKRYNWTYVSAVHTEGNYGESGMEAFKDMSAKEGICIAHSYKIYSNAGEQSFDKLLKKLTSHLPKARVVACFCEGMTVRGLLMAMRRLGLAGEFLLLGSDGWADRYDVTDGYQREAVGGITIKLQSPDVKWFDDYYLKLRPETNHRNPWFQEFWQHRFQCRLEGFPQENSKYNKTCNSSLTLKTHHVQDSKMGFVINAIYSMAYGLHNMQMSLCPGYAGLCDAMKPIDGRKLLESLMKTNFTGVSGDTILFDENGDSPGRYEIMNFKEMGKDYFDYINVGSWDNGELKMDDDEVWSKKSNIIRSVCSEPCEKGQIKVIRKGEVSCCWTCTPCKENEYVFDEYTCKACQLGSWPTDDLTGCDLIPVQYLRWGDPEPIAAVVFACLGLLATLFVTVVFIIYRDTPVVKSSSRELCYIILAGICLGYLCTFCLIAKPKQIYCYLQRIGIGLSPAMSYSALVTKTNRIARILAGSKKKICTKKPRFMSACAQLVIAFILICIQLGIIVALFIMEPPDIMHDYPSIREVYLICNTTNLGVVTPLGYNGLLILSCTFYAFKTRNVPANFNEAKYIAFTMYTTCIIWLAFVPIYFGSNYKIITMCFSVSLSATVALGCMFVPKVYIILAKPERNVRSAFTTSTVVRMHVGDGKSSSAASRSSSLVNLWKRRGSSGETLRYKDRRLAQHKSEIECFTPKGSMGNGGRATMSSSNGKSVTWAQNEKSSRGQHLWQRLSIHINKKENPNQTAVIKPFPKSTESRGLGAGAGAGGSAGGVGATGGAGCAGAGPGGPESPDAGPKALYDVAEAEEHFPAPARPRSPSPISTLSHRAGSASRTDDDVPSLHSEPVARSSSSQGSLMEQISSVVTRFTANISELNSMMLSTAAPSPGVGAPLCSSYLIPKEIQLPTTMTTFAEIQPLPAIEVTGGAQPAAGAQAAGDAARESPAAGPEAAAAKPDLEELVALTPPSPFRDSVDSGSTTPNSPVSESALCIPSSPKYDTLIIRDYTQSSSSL
As to the kind of experiment: positive modulation of mGluR5, calcium based FLIPR assay. To be noted: HEK 293 cell line expressing human recombinant mGluR5; Ca2+ peak height after glutamate at approximately 5% basal stimulation; nonlinear regression. The gist of the method: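 HEK293 cells with tetracycline-free induction, Calcium-4 dye-loaded in Ringer pH 7.4. Compound added 5 min before glutamate at ~5% of maximal effect, 1% DMSO. EC50 from peak Ca2+ fluorescence, normalized to basal glutamate (100%) and 10 μM CDPPB (200%), via nonlinear regression.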
As a reminder, the EC50 is the concentration at which the effect is half-maximal. Take `COc1cc(C(=O)N2CCN(C(=O)c3ncn(-c4cccc(Cl)c4)n3)C(C)C2)ccc1C` (stereo not shown) [Example 277]: the EC50 amounted to 507 nM.
Take `CC1(C)CN(C(=O)c2cc3ccccc3c(OC3CCCC3)n2)CCN1C(=O)c1ncn(-c2ccccc2)n1` [Example 115]: the 50% effective concentration (EC50) was determined as 158 nM.
The same measure for `COc1cccc(C(=O)N2CCN(C(=O)c3ncn(-c4ccc(C)c(F)c4)n3)C(C)(C)C2)n1` [Example 159]: 693 nM; for `COc1cc(Cl)cc(C(=O)N2CCN(C(=O)c3nnn(-c4cccc(Cl)c4)n3)C(C)(C)C2)n1` [Example 172]: 26 nM.
The same measure for `CC1(C)CN(C(=O)c2cc(Cl)c3c(c2)OCCO3)CCN1C(=O)c1nnn(-c2cccc(F)c2)n1` [Example 170]: 37 nM.
The same measure for `CC1(C)CN(C(=O)c2cccc(C3CCC3)n2)CCN1C(=O)c1ncn(-c2ccccc2)n1` [Example 137]: 69 nM; for `Cc1cc(Cl)cc(C(=O)N2CCN(C(=O)c3ncn(-c4cccc(Cl)c4)n3)C(C)(C)C2)n1` [Example 36]: 383 nM; for `CC1(C)CN(C(=O)c2cccc(C3CC3)n2)CCN1C(=O)c1ncn(-c2cccc(Cl)c2)n1` [Example 16]: 41 nM.
With `Cc1cccc(-n2cnc(C(=O)N3C[C@@H](C)N(C(=O)c4oc5ccc(Cl)cc5c4C)[C@@H](C)C3)n2)c1` [Example 264], the EC50 worked out at 891 nM.
Next, `CC(C)Oc1nc(C(=O)N2CCN(C(=O)c3ncn(-c4ccccc4)n3)C(C)(C)C2)cc2ccccc12` [Example 118]: 50 nM; `COc1cccc(C(=O)N2CCN(C(=O)c3nnn(-c4cccc(Cl)c4)n3)C(C)(C)C2)n1` [Example 199]: 69 nM.
Next, `CC1(C)CN(C(=O)c2cc(Cl)ccc2F)CCN1C(=O)c1ncn(-c2cccc(Cl)c2)n1` [Example 73]: 162 nM.
Next, `COc1ccc(C(=O)N2CCN(C(=O)c3ncn(-c4cccc(Cl)c4)n3)C(C)(C)C2)nc1OC` [Example 79]: 230 nM; `Cc1ccc(Cl)cc1C(=O)N1CCN(C(=O)c2ncn(-c3cccc(Cl)c3)n2)C(C)(C)C1` [Example 57]: 120 nM.
With `Cc1oc2ccccc2c1C(=O)N1CCN(C(=O)c2ncn(-c3cccc(F)c3)n2)C(C)(C)C1` [Example 5], the EC50 is 131 nM.
With `CCC1CN(C(=O)c2ncn(-c3cccc(F)c3)n2)CCN1C(=O)c1cc(Br)c(Br)o1` (stereo not shown) [Example 260], the EC50 turned out to be 153 nM.
The same measure for `CC1(C)CN(C(=O)c2cccc(C#N)n2)CCN1C(=O)c1ncn(-c2cccc(Cl)c2)n1` [Example 33]: 203 nM.
The same measure for `CC1(C)CN(C(=O)c2cc(Cl)c3c(c2)OCCO3)CCN1C(=O)c1ncn(-c2ccccc2)n1` [Example 104]: 50 nM; for `Cc1c(C(=O)N2CCN(C(=O)c3ncn(-c4cccc(F)c4)n3)C(C)(C)C2)n(C)c2ccccc12` [Example 6]: 197 nM; for `CC1(C)CN(C(=O)c2cc(Cl)cc(Cl)c2)CCN1C(=O)c1ncn(-c2ccccc2)n1` [Example 153]: 101 nM.
Next, `COc1cc(C(=O)N2CCN(C(=O)c3ncn(-c4cccc(Cl)c4)n3)C(C)(C)C2)ccc1C` [Example 46]: 88 nM; `Cc1ccc2oc(C(=O)N3CCN(C(=O)c4ncn(-c5cccc(Cl)c5)n4)C(C)(C)C3)c(C)c2c1` [Example 50]: 294 nM.
Turning to `Cc1cccc(-n2cnc(C(=O)N3CCN(C(=O)c4oc5ccc(F)cc5c4C)C(C)C3)n2)c1` (stereo not shown) [Example 236], the EC50 is 1620 nM.
Regarding `COc1cccc(C(=O)N2CCN(C(=O)c3ncn(-c4ccccc4)n3)C(C)(C)C2)c1` [Example 122], the EC50 is 213 nM.
`COCC1(C)CN(C(=O)c2cccc(OC)n2)CCN1C(=O)c1ncn(-c2cccc(Cl)c2)n1` (stereo not shown) [Example 311]: the EC50 is 577 nM.
Turning to `Cc1cc(C)cc(C(=O)N2CCN(C(=O)c3ncn(-c4cccc(Cl)c4)n3)C(C)(C)C2)c1` [Example 70], the EC50 stood at 142 nM.
Next, `COc1cccc(C(=O)N2CCN(C(=O)c3ncn(-c4cccc(Cl)c4)n3)C(C)C2)n1` (stereo not shown) [Example 265, {4-[1-(3-Chloro-phenyl)-1H-[1,2,4]-triazole-3-carbonyl]-3-methyl-piperazin-1-yl}-(6-methoxy-pyridin-2-yl)-methanone]: 194 nM; `COc1cc(C)cc(C(=O)N2CCN(C(=O)c3ncn(-c4cccc(Cl)c4)n3)C(C)(C)C2)n1` [Example 22]: 58 nM; `COc1cccc(C(=O)N2CCN(C(=O)c3ncn(-c4cccc(F)c4)n3)C(C)C2)n1` (stereo not shown) [Example 297]: 411 nM.
Next, `COc1ccc2oc(C)c(C(=O)N3CCN(C(=O)c4ncn(-c5cccc(C)c5)n4)CC3C)c2c1` (stereo not shown) [Example 237]: 174 nM; `Cc1ccc(-n2cnc(C(=O)N3CCN(C(=O)c4cc(Cl)c5c(c4)OCCO5)CC3(C)C)n2)cc1F` [Example 157, [4-(8-Chloro-2,3-dihydro-benzo[1,4]dioxine-6-carbonyl)-2,2-dimethyl-piperazin-1-yl]-[1-(3-fluoro-4-methyl-phenyl)-1H-[1,2,4]triazol-3-yl]-methanone]: 364 nM.
Next, `COc1ccc2oc(C)c(C(=O)N3CCN(C(=O)c4ncn(-c5ccccc5)n4)CC3C)c2c1` (stereo not shown) [Example 242]: 114 nM; `Cn1nc(C(=O)N2CCN(C(=O)c3ncn(-c4cccc(Cl)c4)n3)C(C)(C)C2)c2ccccc21` [Example 77]: 181 nM.
For `CC1(C)CN(C(=O)c2cc(Cl)c(F)c(Cl)c2)CCN1C(=O)c1ncn(-c2ccccc2)n1` [Example 156], the EC50 was determined as 232 nM.
The same measure for `CC1(C)CN(C(=O)c2cccc(C3CC3)n2)CCN1C(=O)c1nnn(-c2cccc(F)c2)n1` [Example 185]: 36 nM; for `Cc1cccc(-n2cnc(C(=O)N3CCN(C(=O)c4cccc(Cl)c4)CC3(C)C)n2)c1` [Example 188]: 33 nM.
Next, `Cc1c(C(=O)N2CCN(C(=O)c3ncn(-c4ccccc4)n3)C(C)(C)C2)oc2ccccc12` [Example 134]: 21 nM.
The same measure for `CCc1ccc(C(=O)N2CCN(C(=O)c3ncn(-c4cccc(Cl)c4)n3)C(C)(C)C2)o1` [Example 60]: 69 nM; for `CC1CN(C(=O)c2ncn(-c3cccc(Cl)c3)n2)CCN1C(=O)c1cc2c(Cl)cccc2s1` (stereo not shown) [Example 223]: 330 nM; for `COc1nc(C(=O)N2CCN(C(=O)c3nnn(-c4cccc(Cl)c4)n3)C(C)(C)C2)cc2ccccc12` [Example 208]: 125 nM.
In the case of `CC1CN(C(=O)c2cc3ccccc3o2)CCN1C(=O)c1ncn(-c2cccc(Cl)c2)n1` (stereo not shown) [Example 267], the EC50 was 558 nM.
The same measure for `Cc1c(C(=O)N2CCN(C(=O)c3ncn(-c4cccc(Cl)c4)n3)C(C)C2)oc2ccccc12` (stereo not shown) [Example 279]: 530 nM; for `CC(C)c1cccc(C(=O)N2CCN(C(=O)c3nnn(-c4ccccc4)n3)C(C)(C)C2)c1` [Example 167]: 15 nM.
Next, `COCc1c(C(=O)N2CCN(C(=O)c3ncn(-c4cccc(Cl)c4)n3)CC2C)oc2ccccc12` (stereo not shown) [Example 217]: 1540 nM.
Next, `COc1nc(C(=O)N2CCN(C(=O)c3ncn(-c4cccc(Cl)c4)n3)C(C)(C)C2)cc2cc(F)ccc12` [Example 21]: 62 nM; `COc1cccc(C(=O)N2CCN(C(=O)c3ncn(-c4cc(F)ccc4F)n3)C(C)(C)C2)n1` [Example 197, [1-(2,5-Difluoro-phenyl)-1H-[1,2,4]triazol-3-yl]-[4-(6-methoxy-pyridine-2-carbonyl)-2,2-dimethyl-piperazin-1-yl]-methanone]: 149 nM; `Cc1cc2cc(C(=O)N3CCN(C(=O)c4ncn(-c5ccccc5)n4)C(C)(C)C3)ccc2[nH]1` [Example 142]: 122 nM.
Take `COc1cccc(C(=O)N2CCN(C(=O)c3ncn(-c4cccc(Cl)c4)n3)CC2C)n1` (stereo not shown) [Example 211]: the EC50 stood at 264 nM.
Next, `COc1cccc(C(=O)N2CCN(C(=O)c3ncn(-c4ccccc4)n3)CC2C)n1` (stereo not shown) [Example 247]: 373 nM; `CC1(C)CN(C(=O)c2cc3ccccc3c(C3CC3)n2)CCN1C(=O)c1ncn(-c2ccccc2)n1` [Example 203]: 62 nM.
For the molecule `CC1(C)CN(C(=O)c2cccc(C3CC3)n2)CCN1C(=O)c1ncn(-c2ccccc2)n1` [Example 183], the EC50 is 49 nM.
Next, `CC1(C)CN(C(=O)c2nccc(C(F)(F)F)n2)CCN1C(=O)c1ncn(-c2ccccc2)n1` [Example 147]: 613 nM; `COCCOc1nc(C(=O)N2CCN(C(=O)c3ncn(-c4cccc(Cl)c4)n3)C(C)(C)C2)cc2ccccc12` [Example 34]: 221 nM.
The same measure for `Cc1oc2ccc(F)cc2c1C(=O)N1CCN(C(=O)c2ncn(-c3ccccc3)n2)C(C)(C)C1` [Example 102]: 49 nM; for `COc1cccc(C(=O)N2CCN(C(=O)c3ncn(-c4cccc(Br)c4)n3)C(C)C2)n1` (stereo not shown) [Example 299]: 376 nM; for `CC1CN(C(=O)c2ncn(-c3cccc(Cl)c3)n2)CCN1C(=O)c1cccc(-c2nccs2)c1` (stereo not shown) [Example 218]: 422 nM.
The same measure for `COc1cccc2c(C)c(C(=O)N3CCN(C(=O)c4ncn(-c5cccc(Cl)c5)n4)C(C)(C)C3)oc12` [Example 68]: 54 nM; for `CC1(C)CN(C(=O)c2cccc(C3CCCC3)n2)CCN1C(=O)c1ncn(-c2cccc(Cl)c2)n1` [Example 177, [1-(3-Chloro-phenyl)-1H-[1,2,4]-triazol-3-yl]-[4-(6-cyclopentyl-pyridine-2-carbonyl]-2,2-dimethyl-piperazin-1-yl]-methanone]: 37 nM.
As to `CC1(C)CN(C(=O)c2cccc(C3CC3)n2)CCN1C(=O)c1nnn(-c2cccc(Cl)c2)n1` [Example 182], the EC50 is 28 nM.
As for `CCn1ccc(C(=O)N2CCN(C(=O)c3ncn(-c4cccc(Cl)c4)n3)C(C)(C)C2)n1` [Example 56], the EC50 came to 436 nM.
Next, `COc1nc(C(=O)N2CCN(C(=O)c3ncn(-c4ccccc4)n3)C(C)(C)C2)cc2ccccc12` [Example 97]: 25 nM.
